Assay results published in patent EP4553080A1, “NUCLEOSIDE DERIVATIVES AS ANTIVIRAL AGENTS AGAINST CORONAVIRUSES” (Ustav Organicke Chemie a Biochemie AV CR, v.v.i., priority 2023, dated 2025).

Biological target: nsp14 methyltransferase from SARS-CoV-2 (Severe acute respiratory syndrome coronavirus 2, UniProt P0DTD1)
Test: Nsp14 MTase activity inhibition in vitro (EchoMS assay)
Type: biochemical
Conditions: recombinant nsp14 protein expressed in E. coli; dose-response curve

**Q.** With `Cc1noc(-c2ccccc2)c1CSC[C@H]1O[C@@H](n2cc(Cc3ccc4ccccc4c3)c3c(N)ncnc32)[C@H](O)[C@@H]1O` [Compound 186b, (2R,3R,4S,5S)-2-(4-Amino-5-(naphthalen-2-ylmethyl)-7H-pyrrolo[2,3-d]pyrimidin-7-yl)-5-((((3-methyl-5-phenylisoxazol-4-yl)methyl)thio)methyl)tetrahydrofuran-3,4-diol] as the compound, how does the IC50 read?
**A.** 500 to 2000 nM

**Q.** With `Cc1noc(-c2ccccc2)c1CSC[C@H]1O[C@@H](n2cc(-c3ccc(-c4cccnc4)cc3)c3c(N)ncnc32)[C@H](O)[C@@H]1O` [Compound 187] as the compound, how does the IC50 read?
**A.** 30 to 100 nM

**Q.** With `Cc1noc(-c2ccccc2)c1CSC[C@H]1O[C@@H](n2cc(-c3ccc(-c4ccccn4)cc3)c3c(N)ncnc32)[C@H](O)[C@@H]1O` [Compound 188] as the compound, how does the IC50 read?
**A.** 30 to 100 nM

**Q.** With `Cc1noc(-c2ccccc2)c1CSC[C@H]1O[C@@H](n2cc(Sc3ccccc3)c3c(N)ncnc32)[C@H](O)[C@@H]1O` [Compound 189b, (2R,3R,4S,5S)-2-(4-Amino-5-(phenylthio)-7H-pyrrolo[2,3-d]pyrimidin-7-yl)-5-((((3-methyl-5-phenylisoxazol-4-yl)methyl)thio)methyl)tetrahydrofuran-3,4-diol] as the compound, how does the IC50 read?
**A.** 30 to 100 nM

**Q.** `Cc1noc(-c2ccccc2)c1CSC[C@H]1O[C@@H](n2cc(SCc3ccccc3)c3c(N)ncnc32)[C@H](O)[C@@H]1O` [Compound 190b, (2R,3R,4S,5S)-2-(4-Amino-5-(benzylthio)-7H-pyrrolo[2,3-d]pyrimidin-7-yl)-5-((((3-methyl-5-phenylisoxazol-4-yl)methyl)thio)methyl)tetrahydrofuran-3,4-diol] was tested. Which IC50 did it give?
**A.** 100 to 500 nM

**Q.** `Cc1noc(-c2ccccc2)c1CSC[C@H]1O[C@@H](n2cc(SC34CC5CC(CC(C5)C3)C4)c3c(N)ncnc32)[C@H](O)[C@@H]1O` [Compound 191, (2R,3R,4S,5S)-2-(5-((Adamantan-1-yl)thio)-4-amino-7H-pyrrolo[2,3-d]pyrimidin-7-yl)-5-((((3-methyl-5-phenylisoxazol-4-yl)methyl)thio)methyl)tetrahydrofuran-3,4-diol] was tested. Which IC50 did it give?
**A.** 100 to 500 nM

**Q.** With `Cc1noc(-c2ccccc2)c1CSC[C@H]1O[C@@H](n2ccc3c(N)nc(F)nc32)[C@H](O)[C@@H]1O` [Compound 198, (2R,3R,4S,5S)-2-(4-Amino-2-fluoro-7H-pyrrolo[2,3-d]pyrimidin-7-yl)-5-((((3-methyl-5-phenylisoxazol-4-yl)methyl)thio)methyl)tetrahydrofuran-3,4-diol] as the compound, how does the IC50 read?
**A.** 30 to 100 nM

**Q.** `Cc1noc(-c2ccccc2)c1CSC[C@H]1O[C@@H](n2ccc3c(N)nc(Cl)nc32)[C@H](O)[C@@H]1O` [Compound 204, (2R,3R,4S,5S)-2-(4-Amino-2-chloro-7H-pyrrolo[2,3-d]pyrimidin-7-yl)-5-((((3-methyl-5-phenylisoxazol-4-yl)methyl)thio)methyl)tetrahydrofuran-3,4-diol] was tested. Which IC50 did it give?
**A.** 10 to 30 nM

**Q.** `Cc1nc(N)c2ccn([C@@H]3O[C@H](CSCc4c(C)noc4-c4ccccc4)[C@@H](O)[C@H]3O)c2n1` [Compound 208, (2R,3R,4S,5S)-2-(4-Amino-2-methyl-7H-pyrrolo[2,3-d]pyrimidin-7-yl)-5-((((3-methyl-5-phenylisoxazol-4-yl)methyl)thio)methyl)tetrahydrofuran-3,4-diol] was tested. Which IC50 did it give?
**A.** 30 to 100 nM

**Q.** Which IC50 does the source give for `Cc1noc(-c2ccccc2)c1CSC[C@H]1O[C@@H](n2ncc3c(N)ncnc32)[C@H](O)[C@@H]1O` [Compound 213, (2R,3R,4S,5S)-2-(4-Amino-1H-pyrazolo[3,4-d]pyrimidin-1-yl)-5-((((3-methyl-5-phenylisoxazol-4-yl)methyl)thio)methyl)tetrahydrofuran-3,4-diol] here?
**A.** 30 to 100 nM

**Q.** With `Cc1noc(-c2ccccc2)c1CSC[C@H]1O[C@@H](n2nc(C#Cc3cncnc3)c3c(N)ncnc32)[C@H](O)[C@@H]1O` [Compound 218b] as the compound, how does the IC50 read?
**A.** 30 to 100 nM

**Q.** How did the IC50 turn out when `Cc1noc(-c2ccccc2)c1CSC[C@H]1O[C@@H](n2nc(-c3ccc(C#N)cc3)c3c(N)ncnc32)[C@H](O)[C@@H]1O` [Compound 219b, 4-(4-Amino-1-((2R,3R,4S,5S)-3,4-dihydroxy-5-((((3-methyl-5-phenylisoxazol-4-yl)methyl)thio)methyl)tetrahydrofuran-2-yl)-1H-pyrazolo[3,4-d]pyrimidin-3-yl)benzonitrile] was run?
**A.** 30 to 100 nM

**Q.** For `Cc1noc(-c2ccccc2)c1CSC[C@H]1O[C@@H](n2nc(-c3cccc(C#N)c3)c3c(N)ncnc32)[C@H](O)[C@@H]1O` [Compound 220b, 3-(4-Amino-1-((2R,3R,4S,5S)-3,4-dihydroxy-5-((((3-methyl-5-phenylisoxazol-4-yl)methyl)thio)methyl)tetrahydrofuran-2-yl)-1H-pyrazolo[3,4-d]pyrimidin-3-yl)benzonitrile], which IC50 is on record?
**A.** 100 to 500 nM

**Q.** Which IC50 does the source give for `Cc1noc(-c2ccccc2)c1CSC[C@H]1O[C@@H](n2nc(-c3cccc(C(N)=O)c3)c3c(N)ncnc32)[C@H](O)[C@@H]1O` [Compound 221b, 3-(4-Amino-1-((2R,3R,4S,5S)-3,4-dihydroxy-5-((((3-methyl-5-phenylisoxazol-4-yl)methyl)thio)methyl)tetrahydrofuran-2-yl)-1H-pyrazolo[3,4-d]pyrimidin-3-yl)benzamide] here?
**A.** 30 to 100 nM

**Q.** Which IC50 does the source give for `Cc1noc(-c2ccccc2)c1CSC[C@H]1O[C@@H](n2nc(-c3ccc(CC#N)cc3)c3c(N)ncnc32)[C@H](O)[C@@H]1O` [Compound 222b, 2-(4-(4-Amino-1-((2R,3R,4S,5S)-3,4-dlhydroxy-5-((((3-methyl-5-phenylisoxazol-4-yl)methyl)thio)methyl)tetrahydrofuran-2-yl)-1H-pyrazolo[3,4-d]pyrimidin-3-yl)phenyl)acetonitrile] here?
**A.** 10 to 30 nM

**Q.** How did the IC50 turn out when `Cc1noc(-c2ccccc2)c1CSC[C@H]1O[C@@H](n2nc(CCCC#N)c3c(N)ncnc32)[C@H](O)[C@@H]1O` [Compound 223b, 4-(4-Amino-1-((2R,3R,4S,5S)-3,4-dihydroxy-5-((((3-methyl-5-phenylisoxazol-4-yl)methyl)thio)methyl)tetrahydrofuran-2-yl)-1H-pyrazolo[3,4-d]pyrimidin-3-yl)butanenitrile] was run?
**A.** 30 to 100 nM

**Q.** With `Cc1noc(-c2ccc3c(c2)OCO3)c1CSC[C@H]1O[C@@H](n2nc(-c3ccc(CC#N)cc3)c3c(N)ncnc32)[C@H](O)[C@@H]1O` [Compound 226, 2-(4-(4-Amino-1-((2R,3R,4S,5S)-5-((((5-(benzo[d][1,3]dioxol-5-yl)-3-methylisoxazol-4-yl)methyl)thio)methyl)-3,4-dihydroxytetrahydrofuran-2-yl)-1H-pyrazolo[3,4-d]pyrimidin-3-yl)phenyl)acetonitrile] as the compound, how does the IC50 read?
**A.** 10 to 30 nM

**Q.** With `Cn1cnc(-c2ccccc2)c1CSC[C@H]1O[C@@H](n2cc(-c3ccc(C#N)cc3)c3c(N)ncnc32)[C@H](O)[C@@H]1O` [Compound 230b, 4-(4-Amino-7-((2R,3R,4S,5S)-3,4-dihydroxy-5-((((1-methyl-4-phenyl-1H-imidazol-5-yl)methyl)thio)methyl)tetrahydrofuran-2-yl)-7H-pyrrolo[2,3-d]pyrimidin-5-yl)benzonitrile] as the compound, how does the IC50 read?
**A.** 100 to 500 nM

**Q.** `Cc1nsc(-c2ccccc2)c1CSC[C@H]1O[C@@H](n2cc(-c3ccc(C#N)cc3)c3c(N)ncnc32)[C@H](O)[C@@H]1O` [Compound 231b, 4-(4-Amino-7-((2R,3R,4S,5S)-3,4-dihydroxy-5-((((3-methyl-5-phenylisothiazol-4-yl)methyl)thio)methyl)tetrahydrofuran-2-yl)-7H-pyrrolo[2,3-d]pyrimidin-5-yl)benzonitrile] was tested. Which IC50 did it give?
**A.** 100 to 500 nM
